# System: MV-4-11 cells
# Test: Gene expression microarray analysis (Affymetrix PrimeView) and GSEA
# Format: cell-based, human
# Set-up: RFU PODN (11730768_x_at) / Fold change /veh PODN (11730768_x_at) / RFU LINC00158 (11744669_a_at) / Fold change /veh LINC00158 (11744669_a_at) / RFU DUSP10 (11751237_a_at) / Fold change /veh DUSP10 (11751237_a_at) / RFU ID3 (11757404_x_at) / Fold change /veh ID3 (11757404_x_at) / RFU PLEKHG5 (11737974_s_at) / Fold change /veh PLEKHG5 (11737974_s_at) / RFU LRRC4B (11730491_at) / Fold change /veh LRRC4B (11730491_at) / RFU GIMAP4 (11747438_a_at) / Fold change /veh GIMAP4 (11747438_a_at) / RFU KRT8 (11758183_x_at) / Fold change /veh KRT8 (11758183_x_at) / RFU CNN1 (11734310_a_at) / Fold change /veh CNN1 (11734310_a_at) / RFU VPS37D (11726825_at) / Fold change /veh VPS37D (11726825_at) / RFU C10orf10 (11716522_x_at) / Fold change /veh C10orf10 (11716522_x_at) / RFU KIR2DL2 /// KIR2DL4 /// KIR2DL5A /// KIR2DL5B /// KIR2DS1 /// KIR2DS2 /// KIR2DS3 /// KIR2DS4 /// KIR3DL3 /// KIR3DL3 /// KIR3DS1 (11738374_at) / Fold change /veh KIR2DL2 /// KIR2DL4 /// KIR2DL5A /// KIR2DL5B /// KIR2DS1 /// KIR2DS2 /// KIR2DS3 /// KIR2DS4 /// KIR3DL3 /// KIR3DL3 /// KIR3DS1 (11738374_at) / RFU C1QL1 (11718748_at) / Fold change /veh C1QL1 (11718748_at) / RFU TMPRSS4 (11747572_a_at) / Fold change /veh TMPRSS4 (11747572_a_at) / RFU HAMP (11756126_x_at) / Fold change /veh HAMP (11756126_x_at) / RFU RNFT2 (11725882_a_at) / Fold change /veh RNFT2 (11725882_a_at) / RFU NR4A2 (11747474_a_at) / Fold change /veh NR4A2 (11747474_a_at) / RFU ABCC12 (11746883_a_at) / Fold change /veh ABCC12 (11746883_a_at) / RFU TMEM136 (11760407_x_at) / Fold change /veh TMEM136 (11760407_x_at) / RFU CLDN22 /// WWC2 (11732394_at) / Fold change /veh CLDN22 /// WWC2 (11732394_at) / RFU HLA-DPB1 (11760878_x_at) / Fold change /veh HLA-DPB1 (11760878_x_at) / RFU SPINT1 (11716480_a_at) / Fold change /veh SPINT1 (11716480_a_at) / RFU GAP43 (11754022_s_at) / Fold change /veh GAP43 (11754022_s_at) / RFU A4GNT (11735810_at) / Fold change /veh A4GNT (11735810_at) / RFU PRB3 (11715151_x_at) / Fold change /veh PRB3 (11715151_x_at) / RFU TUBB4B (11761932_at) / Fold change /veh TUBB4B (11761932_at) / RFU CAPN14 (11732068_a_at) / Fold change /veh CAPN14 (11732068_a_at) / RFU TMCC2 (11721928_a_at) / Fold change /veh TMCC2 (11721928_a_at) / RFU IRGQ (11745062_a_at) / Fold change /veh IRGQ (11745062_a_at) / RFU FAM174B (11720279_a_at) / Fold change /veh FAM174B (11720279_a_at) / RFU TMPRSS4 (11748680_a_at) / Fold change /veh TMPRSS4 (11748680_a_at) / RFU FAM212B (11763350_a_at) / Fold change /veh FAM212B (11763350_a_at) / RFU PLEKHG5 (11743358_a_at) / Fold change /veh PLEKHG5 (11743358_a_at) / RFU ZSCAN30 (11745921_a_at) / Fold change /veh ZSCAN30 (11745921_a_at) / RFU CMKLR1 (11741424_a_at) / Fold change /veh CMKLR1 (11741424_a_at) / RFU LOC101060620 /// MAPK8IP1 (11723275_at) / Fold change /veh LOC101060620 /// MAPK8IP1 (11723275_at) / RFU SPTSSB (11747773_x_at) / Fold change /veh SPTSSB (11747773_x_at) / RFU PRSS12 (11739890_at) / Fold change /veh PRSS12 (11739890_at) / RFU BIN1 (11741810_x_at) / Fold change /veh BIN1 (11741810_x_at) / RFU WNT11 (11732464_a_at) / Fold change /veh WNT11 (11732464_a_at) / RFU C10orf10 (11716521_a_at) / Fold change /veh C10orf10 (11716521_a_at) / RFU C5orf56 (11738089_at) / Fold change /veh C5orf56 (11738089_at) / RFU CYB561 (11721691_x_at) / Fold change /veh CYB561 (11721691_x_at) / RFU ANKRD19P (11752326_a_at) / Fold change /veh ANKRD19P (11752326_a_at) / RFU OR2T12 /// OR2T33 /// OR2T8 (11738714_s_at) / Fold change /veh OR2T12 /// OR2T33 /// OR2T8 (11738714_s_at) / RFU VCAN (11748164_a_at) / Fold change /veh VCAN (11748164_a_at) / RFU JSRP1 (11732532_at) / Fold change /veh JSRP1 (11732532_at) / RFU KRTAP10-11 (11738290_x_at) / Fold change /veh KRTAP10-11 (11738290_x_at) / RFU MYO3A (11730013_a_at) / Fold change /veh MYO3A (11730013_a_at) / RFU EBF3 (11725865_a_at) / Fold change /veh EBF3 (11725865_a_at) / RFU CAMK2N1 (11719241_x_at) / Fold change /veh CAMK2N1 (11719241_x_at) / RFU C5orf56 (11738088_a_at) / Fold change /veh C5orf56 (11738088_a_at) / RFU OLFML3 (11715873_a_at) / Fold change /veh OLFML3 (11715873_a_at) / RFU LOC100653217 /// NTM (11731650_a_at) / Fold change /veh LOC100653217 /// NTM (11731650_a_at) / RFU MAPK11 (11762145_a_at) / Fold change /veh MAPK11 (11762145_a_at) / RFU FIZ1 (11724087_x_at) / Fold change /veh FIZ1 (11724087_x_at) / RFU OASL (11726364_x_at) / Fold change /veh OASL (11726364_x_at) / RFU SOX15 (11748057_x_at) / Fold change /veh SOX15 (11748057_x_at) / RFU CD79A (11719716_a_at) / Fold change /veh CD79A (11719716_a_at) / RFU HIST1H1D (11736915_at) / Fold change /veh HIST1H1D (11736915_at) / RFU CASKIN2 (11723855_a_at) / Fold change /veh CASKIN2 (11723855_a_at) / RFU LOC730098 (11760151_x_at) / Fold change /veh LOC730098 (11760151_x_at) / RFU OR4N2 (11742367_at) / Fold change /veh OR4N2 (11742367_at) / RFU PRRT2 (11749266_a_at) / Fold change /veh PRRT2 (11749266_a_at) / RFU SNX32 (11753110_a_at) / Fold change /veh SNX32 (11753110_a_at) / RFU CDHR5 (11726645_a_at) / Fold change /veh CDHR5 (11726645_a_at) / RFU RCAN1 (11760418_a_at) / Fold change /veh RCAN1 (11760418_a_at) / RFU FAM167A (11723789_a_at) / Fold change /veh FAM167A (11723789_a_at) / RFU FAM26E (11764081_at) / Fold change /veh FAM26E (11764081_at) / RFU ISYNA1 (11749810_s_at) / Fold change /veh ISYNA1 (11749810_s_at) / RFU ACY1 (11761880_at) / Fold change /veh ACY1 (11761880_at) / RFU 11764098_at / Fold change /veh 11764098_at / RFU SAMD14 (11745864_x_at) / Fold change /veh SAMD14 (11745864_x_at) / RFU NPB (11741838_a_at) / Fold change /veh NPB (11741838_a_at) / RFU TMPRSS6 (11731388_a_at) / Fold change /veh TMPRSS6 (11731388_a_at) / RFU KRTAP10-2 (11738614_at) / Fold change /veh KRTAP10-2 (11738614_at) / RFU ARHGAP8 /// PRR5-ARHGAP8 (11727945_x_at) / Fold change /veh ARHGAP8 /// PRR5-ARHGAP8 (11727945_x_at) / RFU KRTAP5-7 /// NADSYN1 (11734609_at) / Fold change /veh KRTAP5-7 /// NADSYN1 (11734609_at) / RFU RASL12 (11751679_a_at) / Fold change /veh RASL12 (11751679_a_at) / RFU CDKN2B (11736163_a_at) / Fold change /veh CDKN2B (11736163_a_at) / RFU PRF1 (11729649_at) / Fold change /veh PRF1 (11729649_at) / RFU, ZNF638 /// ZNF638-IT1 / Fold change vs veh, ZNF638 /// ZNF638-IT1 / RFU, PANK3 / Fold change vs veh, PANK3 / RFU, SH3YL1 / Fold change vs veh, SH3YL1 / RFU, ZEB2 / Fold change vs veh, ZEB2 / RFU, NRIP1 / Fold change vs veh, NRIP1 / RFU, PTTG1IP / Fold change vs veh, PTTG1IP / RFU, CAPN2 / Fold change vs veh, CAPN2 / RFU, MED14 / Fold change vs veh, MED14 / RFU, SNORA58 / Fold change vs veh, SNORA58 / RFU, C1orf63 / Fold change vs veh, C1orf63 / RFU, LRRFIP1 / Fold change vs veh, LRRFIP1 / RFU, NDUFAF7 / Fold change vs veh, NDUFAF7 / RFU, SLC12A2 / Fold change vs veh, SLC12A2 / RFU, IBTK / Fold change vs veh, IBTK / RFU, ESF1 / Fold change vs veh, ESF1 / Fold change vs veh, TMEM50B / RFU, TAOK1 / Fold change vs veh, TAOK1 / RFU, ACBD3 / Fold change vs veh, ACBD3 / RFU, TMA16 / Fold change vs veh, TMA16 / RFU, RWDD3 / Fold change vs veh, RWDD3 / RFU, BCAT1 / Fold change vs veh, BCAT1 / RFU, EDEM3 / Fold change vs veh, EDEM3 / RFU, TMEM33 / Fold change vs veh, TMEM33 / RFU, WDR75 / Fold change vs veh, WDR75 / RFU, AHCTF1 / Fold change vs veh, AHCTF1 / RFU, TFRC / Fold change vs veh, TFRC / RFU, ZDHHC17 / Fold change vs veh, ZDHHC17 / RFU, NOM1 / Fold change vs veh, NOM1 / RFU, ARL8B / Fold change vs veh, ARL8B / RFU, ZBTB11 / Fold change vs veh, ZBTB11 / RFU, TAMM41 / Fold change vs veh, TAMM41 / RFU, KIAA1704 /// LOC100996395 / Fold change vs veh, KIAA1704 /// LOC100996395 / RFU, ING1 / Fold change vs veh, ING1 / RFU, TRMT61B / Fold change vs veh, TRMT61B / RFU, FUBP3 / Fold change vs veh, FUBP3 / RFU, TP53 / Fold change vs veh, TP53 / RFU, TNKS2 / Fold change vs veh, TNKS2 / RFU, ZFP14 / Fold change vs veh, ZFP14 / RFU, ACTR2 / Fold change vs veh, ACTR2 / RFU, PPP3R1 / Fold change vs veh, PPP3R1 / RFU, PIK3R1 / Fold change vs veh, PIK3R1 / RFU, HNRNPA1 / Fold change vs veh, HNRNPA1 / RFU, RNF170 / Fold change vs veh, RNF170 / RFU, ZNF28 / Fold change vs veh, ZNF28 / RFU, RNGTT / Fold change vs veh, RNGTT / RFU, OGT / Fold change vs veh, OGT / RFU, BRD1 / Fold change vs veh, BRD1 / RFU, MARS / Fold change vs veh, MARS / RFU, ZNF655 / Fold change vs veh, ZNF655 / RFU, FAHD1 / Fold change vs veh, FAHD1 / RFU, BDP1 / Fold change vs veh, BDP1 / RFU, LRRCC1 / Fold change vs veh, LRRCC1 / RFU, ARID1A / Fold change vs veh, ARID1A / RFU, ZNF146 / Fold change vs veh, ZNF146 / RFU, ZNF330 / Fold change vs veh, ZNF330 / RFU, GPN3 / Fold change vs veh, GPN3 / RFU, C9orf123 / Fold change vs veh, C9orf123 / RFU, N4BP2L2 / Fold change vs veh, N4BP2L2 / RFU, ARFIP1 / Fold change vs veh, ARFIP1 / RFU, FAM179B / Fold change vs veh, FAM179B / RFU, BCL10 / Fold change vs veh, BCL10 / RFU, UHRF1BP1L / Fold change vs veh, UHRF1BP1L / RFU, BET1 / Fold change vs veh, BET1 / RFU, CNOT2 / Fold change vs veh, CNOT2 / RFU, ZNF268 / Fold change vs veh, ZNF268 / Fold change vs veh, ZNF507 / RFU, DGCR2 / Fold change vs veh, DGCR2 / RFU, WDSUB1 / Fold change vs veh, WDSUB1 / Fold change vs veh, HSP90B1 /// MIR3652 / RFU, ADSS / Fold change vs veh, ADSS / RFU, GK / Fold change vs veh, GK / RFU, ZNF148 / Fold change vs veh, ZNF148 / RFU, TAF9 / Fold change vs veh, TAF9 / RFU, SLC1A5 / Fold change vs veh, SLC1A5 / RFU, SLMO2 / Fold change vs veh, SLMO2 / RFU, ABCC4 / Fold change vs veh, ABCC4 / RFU, LOC101060439 /// RAP1B / Fold change vs veh, LOC101060439 /// RAP1B / RFU, RFX7 / Fold change vs veh, RFX7 / RFU, GTPBP10 / Fold change vs veh, GTPBP10 / RFU, CNEP1R1 / Fold change vs veh, CNEP1R1 / RFU, BIVM-ERCC5 /// ERCC5 / Fold change vs veh, BIVM-ERCC5 /// ERCC5 / RFU, ILF3 / Fold change vs veh, ILF3 / RFU 11762660_at / Fold change /veh 11762660_at / RFU VCAN (11757783_s_at) / Fold change /veh VCAN (11757783_s_at) / RFU DDX43 (11728927_at) / Fold change /veh DDX43 (11728927_at) / RFU KRT8 (11758188_x_at) / Fold change /veh KRT8 (11758188_x_at) / RFU NKD1 (11759106_at) / Fold change /veh NKD1 (11759106_at) / RFU SRD5A1 (11742802_a_at) / Fold change /veh SRD5A1 (11742802_a_at) / RFU TPSAB1 /// TPSB2 (11721975_s_at) / Fold change /veh TPSAB1 /// TPSB2 (11721975_s_at) / RFU GSTM3 (11746129_a_at) / Fold change /veh GSTM3 (11746129_a_at) / RFU IL23R (11737362_x_at) / Fold change /veh IL23R (11737362_x_at) / RFU TMEM51 (11727254_a_at) / Fold change /veh TMEM51 (11727254_a_at) / RFU PIWIL2 (11732686_x_at) / Fold change /veh PIWIL2 (11732686_x_at) / RFU ORM1 (11744905_x_at) / Fold change /veh ORM1 (11744905_x_at) / RFU CCDC152 (11743942_at) / Fold change /veh CCDC152 (11743942_at) / RFU ECM1 (11717891_a_at) / Fold change /veh ECM1 (11717891_a_at) / RFU IL23R (11748794_a_at) / Fold change /veh IL23R (11748794_a_at) / RFU TNFAIP8L3 (11732012_x_at) / Fold change /veh TNFAIP8L3 (11732012_x_at) / RFU MBOAT4 (11741988_at) / Fold change /veh MBOAT4 (11741988_at) / RFU 11764193_at / Fold change /veh 11764193_at / RFU TMEM53 (11763286_at) / Fold change /veh TMEM53 (11763286_at) / RFU MAGEB2 (11727129_at) / Fold change /veh MAGEB2 (11727129_at) / RFU TMEM200A (11744735_a_at) / Fold change /veh TMEM200A (11744735_a_at) / RFU CCDC152 (11751479_a_at) / Fold change /veh CCDC152 (11751479_a_at) / RFU FAM211A (11726209_a_at) / Fold change /veh FAM211A (11726209_a_at) / RFU RGS16 (11746705_a_at) / Fold change /veh RGS16 (11746705_a_at) / RFU VCAN (11755009_s_at) / Fold change /veh VCAN (11755009_s_at) / RFU RHOB (11743442_s_at) / Fold change /veh RHOB (11743442_s_at) / RFU RGS16 (11720943_a_at) / Fold change /veh RGS16 (11720943_a_at) / RFU RGS16 (11720944_at) / Fold change /veh RGS16 (11720944_at) / RFU, VPS4B / Fold change vs veh, VPS4B / RFU, CREB1 / Fold change vs veh, CREB1 / RFU, DNAJC13 / Fold change vs veh, DNAJC13 / RFU, GNAQ / Fold change vs veh, GNAQ / RFU, CDK5R1 / Fold change vs veh, CDK5R1 / RFU, ZRANB3 / Fold change vs veh, ZRANB3 / RFU, CUL4A / Fold change vs veh, CUL4A / RFU, CCNY / Fold change vs veh, CCNY / RFU, UFL1 / Fold change vs veh, UFL1 / RFU, COG3 / Fold change vs veh, COG3 / RFU, DIAPH2 / Fold change vs veh, DIAPH2 / RFU, SKA2 / Fold change vs veh, SKA2 / RFU, AFF3 / Fold change vs veh, AFF3 / RFU, LMF1 / Fold change vs veh, LMF1 / RFU, IPO11 / Fold change vs veh, IPO11 / RFU, DFFB / Fold change vs veh, DFFB / RFU, FOXP1 / Fold change vs veh, FOXP1 / RFU, CARD8 / Fold change vs veh, CARD8 / RFU, STRN3 / Fold change vs veh, STRN3 / RFU, ADK / Fold change vs veh, ADK / RFU, RASSF2 / Fold change vs veh, RASSF2 / RFU, WIPF1 / Fold change vs veh, WIPF1 / RFU, LARP1B / Fold change vs veh, LARP1B / RFU, RASA1 / Fold change vs veh, RASA1 / RFU, RB1 / Fold change vs veh, RB1 / RFU, PPFIA1 / Fold change vs veh, PPFIA1 / RFU, MAT2A / Fold change vs veh, MAT2A / RFU, CCT5 / Fold change vs veh, CCT5 / RFU, WDR92 / Fold change vs veh, WDR92 / RFU, CUX1 / Fold change vs veh, CUX1 / RFU, TTC7A / Fold change vs veh, TTC7A / RFU, TMEM135 / Fold change vs veh, TMEM135 / RFU, DEPTOR / Fold change vs veh, DEPTOR / RFU, CPM / Fold change vs veh, CPM / RFU, DNAJB6 / Fold change vs veh, DNAJB6 / RFU, CACNA2D3 / Fold change vs veh, CACNA2D3 / RFU, DTX4 / Fold change vs veh, DTX4 / RFU, TFCP2 / Fold change vs veh, TFCP2 / RFU, GMCL1 /// GMCL1P1 / Fold change vs veh, GMCL1 /// GMCL1P1 / RFU, AEBP2 / Fold change vs veh, AEBP2 / RFU, SNHG1 /// SNORD22 /// SNORD25 /// SNORD26 /// SNORD27 /// SNORD28 /// SNORD29 /// SNORD31 / Fold change vs veh, SNHG1 /// SNORD22 /// SNORD25 /// SNORD26 /// SNORD27 /// SNORD28 /// SNORD29 /// SNORD31 / Fold change (Aza/veh), C12orf56 (ProbeSet 11735607_a_at) / Fold change (ACY-1035/veh), C12orf56 (ProbeSet 11735607_a_at) / Fold change (Aza/veh), FGFR1OP (ProbeSet 11751329_s_at) / Fold change (ACY-1035/veh), FGFR1OP (ProbeSet 11751329_s_at) / Fold change (Aza/veh), VPS36 (ProbeSet 11739960_a_at) / Fold change (ACY-1035/veh), VPS36 (ProbeSet 11739960_a_at) / RFU SYPL1 (11715823_x_at) / Fold change /veh SYPL1 (11715823_x_at) / RFU IGFBP7 (11715501_s_at) / Fold change /veh IGFBP7 (11715501_s_at) / RFU REEP3 (11722064_at) / Fold change /veh REEP3 (11722064_at) / RFU IGLL1 (11728026_x_at) / Fold change /veh IGLL1 (11728026_x_at): dose or concentration left out as unconfirmed
# Settings: MV-4-11 cells, 48 hours
smiles,measurement,value
Nc1ccc(-c2cccs2)cc1NC(=O)c1ccc2c(c1)cc(C1CC1)n2CCN1CCOCC1 [ACY-1035],RFU HAMP (11756126_x_at),352.00 RFU

# Source: publication PMC5218480 (PLoS ONE, 2017)
